Where a name gives a salt, the structure may show the parent alone.
Tests used:
[1] = tested on: human T24 bladder carcinoma cells; assay: Inhibition of proliferation of T24 bladder carcinoma cells (methylene blue staining, 5 days); format: cell-based; conditions: T-24, 120 h, 5 days incubation, read-out: Inhibition of T24 cell growth IC50
Description: The carcinoma cells (1000-1500) are transinoculated into 96-depression microlitre plates and incubated overnight under the conditions mentioned. The test substance is added in serial dilutions on day 1. The plates are incubated under the conditions mentioned for 5 days. During this period of time, the control cultures pass through at least 4 cell divisions. After the incubation, the cells are fixed with 3.3% (weight/volume=w/v) aqueous glutaraldehyde solution, washed with water and dyed with 0.05% (w/v) aqueous methylene blue solution. After washing, the dye is eluted with 3% (w/v) aqueous hydrochloric acid. Thereafter, the optical density (OD) per depression, which is directly proportional to the number of cells, is measured with a photometer (Titertek multiskan) at 665 nm. The IC50 values are calculated with a computer system using the formula [formula]
The IC50 values are defined as that concentration of active ingredient at which the number of cells per depression at the end of the incubation time is only 50% of the number of cells in the control cultures.
(§1) On measurement of the IC50 for inhibition of ornithine decarboxylase (by the abovementioned method of Seely and Pegg with ODC from rat liver (obtained by the method of Hayashi and Kameji, see above)) and of the IC50 for inhibition of proliferation of T24 bladder carcinoma cells as described above, the following IC50 values can be found with the particular compounds mentioned from the examples: […]

[2] = biological target: T1, ornithine decarboxylase (ODC) (Rattus norvegicus, UniProt P09057); assay: Inhibition of ornithine decarboxylase (method of Seely and Pegg, ODC from rat liver); format: biochemical
T1 construct: from tissue; host or cells: rat liver
T1 sequence (P09057 1-461): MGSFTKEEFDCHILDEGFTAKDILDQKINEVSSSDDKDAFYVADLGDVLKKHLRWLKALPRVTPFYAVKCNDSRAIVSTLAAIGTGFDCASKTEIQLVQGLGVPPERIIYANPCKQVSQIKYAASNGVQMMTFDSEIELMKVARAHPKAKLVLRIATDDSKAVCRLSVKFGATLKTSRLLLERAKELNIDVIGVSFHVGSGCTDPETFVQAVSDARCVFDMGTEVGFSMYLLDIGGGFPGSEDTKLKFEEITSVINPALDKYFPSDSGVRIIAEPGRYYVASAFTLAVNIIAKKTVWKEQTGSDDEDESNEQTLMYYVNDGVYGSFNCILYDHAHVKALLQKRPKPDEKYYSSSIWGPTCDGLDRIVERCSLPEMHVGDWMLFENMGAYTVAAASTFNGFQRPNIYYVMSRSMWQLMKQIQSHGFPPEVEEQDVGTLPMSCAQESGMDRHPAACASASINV
Description: White-Tabor (editors): Methods in Enzymology, Volume 94: Polyamines, Academic Press, New York 1983. If ODC from rat liver is used in this test (isolation: Hayashi, S.-I. and Kameji, T., same volume, pages 154-158), IC50 values in the micromolar region, down to about 0.01 μM, preferably between about 0.01 and 10 μM, for example between about 0.02 and about 7.2 μM, are obtained for the compounds of the formula I.IC50 is the concentration of the inhibitor at which the ODC activity is 50% of that of a control without the inhibitor.
as §1

IC50 [1]	IC50 [2]	Structure (SMILES)
	83 nM	NOC[C@H]1C[C@@H](N)C1 [Example 6, cis-3-Aminooxymethyl-cyclobutylamine dihydrochlofide]
4900 nM	23 nM	NOC[C@H]1C[C@H](N)C1 [Example 7, trans-3-Aminooxymethyl-cyclobutylamine dihydrochloride]
4150 nM	20 nM	NOCC1CC(N)C1 (stereo not shown) [Example 8, 3-Aminooxymethyl-cyclobutylamine dihydrochloride]

The remaining lines, values behind:

Structure (SMILES)	IC50 [1]	IC50 [2]
NO[C@H]1CCC[C@H](N)C1 (relative stereo) [Example 3, trans-3-Aminooxy-cyclohexylamine dihydrochloride]	11000 nM	
NC[C@@H]1C[C@@H]1CON (relative stereo) [Example 10, cis-2-Aminooxymethyl-cyclopropylmethylamine dihydrochloride]		470 nM
NO[C@H]1CC[C@H](N)CC1 [Example 1, trans-4-Aminooxy-cyclohexylamine dihydrochloride]	7500 nM	220 nM
NCC1CC(ON)C1 (stereo not shown) [Example 9, 3-Aminooxy-cyclobutylmethylamine dihydrochlofide]		53 nM
